The target of assay [1] is NAMPT (human, recombinant, C-terminally His-tagged) (Homo sapiens, UniProt P43490). Nature of the assay: Time-Resolved Fluorescence Resonance Energy Transfer (TR-FRET) Binding Assay of NAMPT. Conditions: 6.8 nM NAMPT, 200 nM probe, equilibrated 3 hours, absence of substrates. In outline:
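Probe displacement measured by TR-FRET (Ex 337 nm; 520/495 nm ratio) after 3 h room-temperature equilibration of compound with 6.8 nM His-tagged human NAMPT, 1 nM Tb-anti-His antibody and 200 nM Oregon Green 488 nicotinamide-site probe, pH 7.5 HEPES buffer, 2% DMSO. Control-normalized data fit four-parameter logistic for IC50.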
In general terms: TR-FRET usually uses a lanthanide donor and a delayed reading to cut background.

A further assay addresses NAMPT (Homo sapiens, UniProt P43490). Nature of the assay: Time-Resolved Fluorescence Resonance Energy Transfer (TR-FRET) Binding Assay of NAMPT with PRPP. Conditions: 2 nM NAMPT, 2 nM probe, 200 uM PRPP and 2.5 mM ATP, equilibrated 16 hours. In outline: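 Binding measured by TR-FRET after a 16-hour equilibration meant to permit enzymatic compound modification. Substrates present at 200 uM PRPP and 2.5 mM ATP, with 2 nM enzyme, 2 nM probe, 1 nM Tb-anti-His antibody and 2% DMSO final.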

NAMPT, sequence (P43490 whole entry): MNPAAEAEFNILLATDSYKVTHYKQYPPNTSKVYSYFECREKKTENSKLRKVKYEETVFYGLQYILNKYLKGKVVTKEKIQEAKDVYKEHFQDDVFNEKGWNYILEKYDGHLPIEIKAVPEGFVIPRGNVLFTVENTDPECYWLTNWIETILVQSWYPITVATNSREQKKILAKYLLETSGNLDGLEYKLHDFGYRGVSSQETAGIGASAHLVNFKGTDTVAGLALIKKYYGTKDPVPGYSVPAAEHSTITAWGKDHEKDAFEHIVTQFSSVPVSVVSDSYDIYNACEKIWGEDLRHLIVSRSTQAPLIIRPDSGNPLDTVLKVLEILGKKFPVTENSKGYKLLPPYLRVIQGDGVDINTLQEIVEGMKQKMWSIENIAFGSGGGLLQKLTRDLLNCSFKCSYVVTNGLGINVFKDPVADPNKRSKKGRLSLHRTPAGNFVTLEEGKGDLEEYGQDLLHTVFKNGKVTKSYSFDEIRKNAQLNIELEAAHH
NAMPT (human, recombinant, C-terminally His-tagged), sequence (P43490 whole entry): as above

Turning to `CC(C)C(C)C(=O)N1CCC(c2ccc(NC(=O)C3CN(c4cccnc4)C3)cc2)CC1` (centres unmarked) [Example 139, N-{4-[1-(2,3-dimethylbutanoyl)piperidin-4-yl]phenyl}-1-(pyridin-3-yl)azetidine-3-carboxamide], the concentration for half-maximal inhibition (IC50) (commonly the point on the concentration scale where inhibition reaches its midpoint) is 12 nM in assay [1] and 0.473 nM at NAMPT.
For `CC(C)(C)CC(=O)N1CCC(c2ccc(NC(=O)C3CN(c4ccnnc4)C3)cc2)CC1` [Example 140, N-{4-[1-(3,3-dimethylbutanoyl)piperidin-4-yl]phenyl}-1-(pyridazin-4-yl)azetidine-3-carboxamide] the same measures were 11 nM and 8.87 nM.
For `CC(C)(O)C(=O)N1CCC(c2ccc(NC(=O)[C@H]3CCN(c4ccnnc4)C3)cc2)CC1` [Example 141, (3S)—N-{4-[1-(2-hydroxy-2-methylpropanoyl)piperidin-4-yl]phenyl}-1-(pyridazin-4-yl)pyrrolidine-3-carboxamide] the same measures were 1240 nM and 75.2 nM.
For `O=C(Nc1ccc(C2CCN(C(=O)CC3CCCC3)CC2)cc1)[C@H]1CCN(c2ccnnc2)C1` [Example 142, (3S)—N-{4-[1-(cyclopentylacetyl)piperidin-4-yl]phenyl}-1-(pyridazin-4-yl)pyrrolidine-3-carboxamide] the same measures were 1560 nM and 32.8 nM.
On to `CC[C@H](C)C(=O)N1CCC(c2ccc(NC(=O)C3CN(c4ccnnc4)C3)cc2)CC1` [Example 143, N-(4-{1-[(2S)-2-methylbutanoyl]piperidin-4-yl}phenyl)-1-(pyridazin-4-yl)azetidine-3-carboxamide], for which the IC50 in assay [1] is 17 nM; on NAMPT, 31.1 nM.
For `O=C(Nc1ccc(C2CCN(C(=O)CC3CCCC3)CC2)cc1)C1CN(c2ccnnc2)C1` [Example 144, N-{4-[1-(cyclopentylacetyl)piperidin-4-yl]phenyl}-1-(pyridazin-4-yl)azetidine-3-carboxamide] the same measures were 14.6 nM and 34.4 nM.
For `O=C(Nc1ccc(C2CCN(C(=O)CC3CCOCC3)CC2)cc1)C1CN(c2ccnnc2)C1` [Example 145, 1-(pyridazin-4-yl)-N-{4-[1-(tetrahydro-2H-pyran-4-ylacetyl)piperidin-4-yl]phenyl}azetidine-3-carboxamide] the same measures were 40.6 nM and 58.1 nM.
For `O=C(Nc1ccc(C2CCN(C(=O)C3CCOCC3)CC2)cc1)C1CN(c2ccnnc2)C1` [Example 146, 1-(pyridazin-4-yl)-N-{4-[1-(tetrahydro-2H-pyran-4-ylcarbonyl)piperidin-4-yl]phenyl}azetidine-3-carboxamide] the same measures were 65.9 nM and 109 nM.
As to `CC(C)C(=O)N1CCC(c2ccc(NC(=O)C3CN(c4cccnn4)C3)cc2)CC1` [Example 147, N-{4-[1-(2-methylpropanoyl)piperidin-4-yl]phenyl}-1-(pyridazin-3-yl)azetidine-3-carboxamide], the IC50 in assay [1] was determined as 34.6 nM; on NAMPT, 1.47 nM.
The like results for `CC(C)Cn1cc(-c2ccc(NC(=O)C3CN(c4ccnnc4)C3)cc2)cn1` [Example 148, N-{4-[1-(2-methylpropyl)-1H-pyrazol-4-yl]phenyl}-1-(pyridazin-4-yl)azetidine-3-carboxamide] were, in that order, 42.9 nM and 20.1 nM.
For `Cc1ncccc1N1CC(C(=O)Nc2ccc(C3CCN(C(=O)c4ccccc4)CC3)cc2)C1` [Example 149, N-[4-(1-benzoylpiperidin-4-yl)phenyl]-1-(2-methylpyridin-3-yl)azetidine-3-carboxamide] the same measures were 20.7 nM and 54.3 nM.
`Cc1ncccc1N1CC(C(=O)Nc2ccc(C3CCN(C(=O)c4ccccc4F)CC3)cc2)C1` [Example 150, N-{4-[1-(2-fluorobenzoyl)piperidin-4-yl]phenyl}-1-(2-methylpyridin-3-yl)azetidine-3-carboxamide]: the IC50 was 6.53 nM in assay [1] and 43.8 nM at NAMPT.
The like results for `Cc1ncccc1N1CC(C(=O)Nc2ccc(C3CCN(C(=O)c4ccccc4Cl)CC3)cc2)C1` [Example 151, N-{4-[1-(2-chlorobenzoyl)piperidin-4-yl]phenyl}-1-(2-methylpyridin-3-yl)azetidine-3-carboxamide] were, in that order, 17.4 nM and 43.6 nM.
For `Cc1ncccc1N1CC(C(=O)Nc2ccc(C3CCN(C(=O)c4cccc(F)c4)CC3)cc2)C1` [Example 152, N-{4-[1-(3-fluorobenzoyl)piperidin-4-yl]phenyl}-1-(2-methylpyridin-3-yl)azetidine-3-carboxamide] the same measures were 87.6 nM and 101 nM.
For `Cc1ncccc1N1CC(C(=O)Nc2ccc(C3CCN(C(=O)c4cccc(Cl)c4)CC3)cc2)C1` [Example 153, N-{4-[1-(3-chlorobenzoyl)piperidin-4-yl]phenyl}-1-(2-methylpyridin-3-yl)azetidine-3-carboxamide] the same measures were 266 nM and 122 nM.
Take `Cc1ncccc1N1CC(C(=O)Nc2ccc(C3CCN(C(=O)c4cc(Cl)cc(Cl)c4)CC3)cc2)C1` [Example 154, N-{4-[1-(3,5-dichlorobenzoyl)piperidin-4-yl]phenyl}-1-(2-methylpyridin-3-yl)azetidine-3-carboxamide]: the concentration for half-maximal inhibition (IC50) turned out to be 524 nM in assay [1] and 16.1 nM on NAMPT.
For `Cc1ncccc1N1CC(C(=O)Nc2ccc(C3CCN(C(=O)c4ccc(F)cc4)CC3)cc2)C1` [Example 155, N-{4-[1-(4-fluorobenzoyl)piperidin-4-yl]phenyl}-1-(2-methylpyridin-3-yl)azetidine-3-carboxamide] the same measures were 294 nM and 44 nM.
For `Cc1ncccc1N1CC(C(=O)Nc2ccc(C3CCN(C(=O)c4ccc(Cl)cc4)CC3)cc2)C1` [Example 156, N-{4-[1-(4-chlorobenzoyl)piperidin-4-yl]phenyl}-1-(2-methylpyridin-3-yl)azetidine-3-carboxamide], the results for the IC50 (in assay [1]; at NAMPT) were 396 nM and 84.3 nM, respectively.
The like results for `Cc1ncccc1N1CC(C(=O)Nc2ccc(C3CCN(C(=O)c4ccc(C(F)(F)F)cc4)CC3)cc2)C1` [Example 157, 1-(2-methylpyridin-3-yl)-N-(4-{1-[4-(trifluoromethyl)benzoyl]piperidin-4-yl}phenyl)azetidine-3-carboxamide] were, in that order, 1070 nM and 192 nM.
For `Cc1ncccc1N1CC(C(=O)Nc2ccc(C3CCN(C(=O)c4cccnn4)CC3)cc2)C1` [Example 158, 1-(2-methylpyridin-3-yl)-N-{4-[1-(pyridazin-3-ylcarbonyl)piperidin-4-yl]phenyl}azetidine-3-carboxamide] the same measures were 2900 nM and 224 nM.
As for `CCCCC(=O)N1CCC(c2ccc(NC(=O)C3CN(c4cccnc4C)C3)cc2)CC1` [Example 159, 1-(2-methylpyridin-3-yl)-N-[4-(1-pentanoylpiperidin-4-yl)phenyl]azetidine-3-carboxamide], the half-maximal inhibitory concentration (IC50) was 137 nM in assay [1] and 61.2 nM at NAMPT.
Consider `CCC(C)CC(=O)N1CCC(c2ccc(NC(=O)C3CN(c4cccnc4C)C3)cc2)CC1` (centres unmarked) [Example 160, N-{4-[1-(3-methylpentanoyl)piperidin-4-yl]phenyl}-1-(2-methylpyridin-3-yl)azetidine-3-carboxamide], for which the IC50 in assay [1] is 74.5 nM; on NAMPT it was 70.8 nM.

Values taken from patent US8975398B2, “NAMPT inhibitors” (AbbVie Inc., priority 2012, dated 2015).
